# Reference: patent US4241056A, “Penicillins and salts thereof” (Boehringer Ingelheim GmbH, priority 1978, dated 1980)
# Where a name gives a salt, the structure may show the parent alone. Read-outs that look alike come from different tables or passages of the source.
# Columns and labels:
# various kinds of E. coli = conditions: cited from earlier work
# Klebsiella = conditions: cited from earlier work
# [1] = test system: pseudomonas aeruginosa hamburgensis; test: MIC, serial dilution test in the microtiter system; type: cell-based; conditions: 18 h, pseud. aerug. hamb., 37° C., 18-20 hours
# Protocol: (§1) The tests were performed according to the method of the serial dilution test in the microtiter system. The effect of the substances on bacteriostasis was examined in a fluid medium. The activity on bacteriostatis was examined at the following concentrations:
# (§2) 10 gm of peptone, 8 gm of meat extract-oxoid, 3 gm of sodium chloride, 2 gm of sec. sodium phosphate were diluted with distilled water to 1000 ml (pH 7.2-7.4). Only in the test against streptococci 1% of glucose was added. The age of the primary cultures was about 20 hours. The standardizations of the pathogen suspension was effected by using a photometer according to "Eppendorf" (test tube diameter 14 mm, filter 546 nm) with the aid of the turbidity of a comparison suspension consisting of barium sulfate, this suspension being prepared by addition of 3.0 ml of 1% barium chloride solution to 97 ml of 1% sulfuric acid. After the standardization, streptococcus aronson were further diluted to a concentration of 1:15 and the other germs to a concentration of 1:1500 by menas of a sodium chloride solution.
# (§3) 16 mg of the test substance were put into a 10 ml measuring flask and filled up to the mark with the solvent. The further dilution series was standardized with distilled water or the respective solvent.
# (§4) The cavities of the microtiter plates were filled with 0.2 ml of nutrient medium. Then, 0.01 ml of the corresponding test substance dilution was added and inoculated with 0.01 ml of the standardized suspension. The bacteria were incubated at 37° C. for 18-20 hours. Control tests merely using the solvent were carried out simultaneously.
# (§5) The measurement was carried out macroscopically to determine the minimal inhibitory (threshold) concentration, i.e. the lowest still bacteriostatically effective concentration.
# (§6) Staphylococcus aureus SG 511, streptococcus aronson, streptococcus faecalis ATCC 10541, escherichia coli ATCC 9637, 11 775 and escherichia coli 12593/74 (β-lactamase carrier), pseudomonas aeruginosa hamburgensis and ATCC 10145, serratia marcescens ATCC 13 880, klebsiella pneumoniae ATCC 10 031 and 272 and proteus mirabilis hamburgensis.
# [2] = test system: klebsiella pneumoniae ATCC 10 031; test: MIC, serial dilution test in the microtiter system; type: cell-based; conditions: 18 h, klebs pneum ATCC 10031, 37° C., 18-20 hours
# Protocol: as §1, §2, §3, §4, §5, §6
# [3] = test system: Staphylococcus aureus SG 511; test: MIC, serial dilution test in the microtiter system; type: cell-based; conditions: SG511, 18 h, Staph. Aureus SG 511, 37° C., 18-20 hours
# Protocol: as §1, §2, §3, §4, §5, §6
# [4] = test system: serratia marcescens ATCC 13 880; test: MIC, serial dilution test in the microtiter system; type: cell-based; conditions: ATCC13, 18 h, serrat marcesc., 37° C., 18-20 hours
# Protocol: as §1, §2, §3, §4, §5, §6
# [5] = test system: pseudomonas aeruginosa ATCC 10145; test: MIC, serial dilution test in the microtiter system; type: cell-based; conditions: ATCC10145, 18 h, pseud. aerug. ATCC 10145, 37° C., 18-20 hours
# Protocol: as §1, §2, §3, §4, §5, §6
# [6] = test system: escherichia coli ATCC 9637; test: MIC, serial dilution test in the microtiter system; type: cell-based; conditions: ATCC9637, 18 h, E. coli ATCC 9637, 37° C., 18-20 hours
# Protocol: as §1, §2, §3, §4, §5, §6
# [7] = test system: proteus mirabilis hamburgensis; test: MIC, serial dilution test in the microtiter system; type: cell-based; conditions: 18 h, prot. mirabilis, 37° C., 18-20 hours
# Protocol: as §1, §2, §3, §4, §5, §6
# [8] = test system: klebsiella pneumoniae 272; test: MIC, serial dilution test in the microtiter system; type: cell-based; conditions: 18 h, klebs pneum. 272, 37° C., 18-20 hours
# Protocol: as §1, §2, §3, §4, §5, §6
# [9] = test system: escherichia coli ATCC 11775; test: MIC, serial dilution test in the microtiter system; type: cell-based; conditions: ATCC11775, 18 h, E. coli ATCC 11775, 37° C., 18-20 hours
# Protocol: as §1, §2, §3, §4, §5, §6
# [10] = test system: escherichia coli 12593/74 (β-lactamase carrier); test: MIC, serial dilution test in the microtiter system; type: cell-based; conditions: 18 h, E. coli 12593/74 (β-lactamase carrier), 37° C., 18-20 hours
# Protocol: as §1, §2, §3, §4, §5, §6
# streptococcus aronson = test: MIC, serial dilution test in the microtiter system; type: cell-based; conditions: 18 h, strept. aronson, 1% glucose added, 37° C., 18-20 hours
# Protocol: as §1, §2, §3, §4, §5, §6
# [11] = test system: streptococcus faecalis ATCC 10541; test: MIC, serial dilution test in the microtiter system; type: cell-based; conditions: Enterococcus faecalis, ATCC10541, 18 h; strept. faecal.; 37° C., 18-20 hours
# Protocol: as §1, §2, §3, §4, §5, §6
# [12] = Serum (blood) level in rats; type: in vivo; conditions: rat, average from 3 rats; for concentration at 0.5 h: 30 min.; for concentration at 1 h: 60 min.; for concentration at 2 h: 120 min.
# Protocol: For the determination of the serum level in rats, typical representatives of the penicillins according to the invention were administered at a dosage of 10 mg/kg subcutaneously or 100 mg/kg per os to groups of 3 female FW 49 rats (weight 100 to 130 gm) each. Blood tests taken from the heart were worked up, and the obtained sera were tested by the cylinder test-agar diffusion method on plates with sarcina lutea ATCC 15957. The samples were compared with standard curves.
# E. coli ATCC 11775 [13] = test: In vivo activity against experimental infection in mice; parameters: species or system mouse (NMRI); conditions: Escherichia coli, 168 h, 7 days observation, read-out: ED50 (dose at which 50% of the animals survived)
# Protocol: (§7) A number of compounds of this invention were tested in vivo in mice against experimental infections. Bacteria E. coli ATCC 11775 and pseudomonas aeruginosa walter were used as pathogens. An intraperitoneal infection with 0.2 ml of a 5% mucin suspension of the bacteria was induced. This corresponds to about 2×10^6 germs E. coli and 8×10^5 germs pseudomonas/mouse. Female NMRI mice were divided into groups of 10 animals each, two control groups remained untreated, the remaining groups were treated with different doses of the respective penicillins for the determination of the ED50 (dose at which 50% of the animals survived). The groups with the E. coli infection were treated with the substance 3 times on the first day (1, 4 and 7 hours post-infectionem) and for 2 days thereafter twice a day. The groups with the pseudomonas infection were treated with the substance applied 6 times on the first day (1, 3, 6, 9, 12, and 15 hours post-infectionem) and for 2 days thereafter twice a day. The observation time was in both cases 7 days.
# [14] = test system: pseudomonas aeruginosa walter; test: as above; parameters: species or system mouse (NMRI); conditions: sc, 168 h, subcutaneous, 7 days observation, read-out: ED50 (dose at which 50% of the animals survived)
# Protocol: as §7
# Pseudomonas = conditions: in vivo as well as in vitro; cited from earlier work
# pseud. aerug. hamburg. = test: Influence of the size of the inoculum on the MIC-values; type: cell-based; conditions: Pseudomonas aeruginosa
# Protocol: (§8) For the penicillins C and H, which are typical representatives for this invention, the influence of the size of the inoculum on the MIC-values against ps. aerug. hamburg. and E. coli ATCC 11775 in the microtiter system was determined. Thereby 3 different sizes of inoculum (3.3×10^6, 3.3×10^4 and 3.3×10^2 in E. coli and 4.7×10^6, 4.7×10^4 and 4.7×10^2 in pseudomonas) were used. The reference system was again penicillin Q.
# E. coli ATCC 11775 [15] = test: as above; type: cell-based; conditions: Escherichia coli
# Protocol: as §8
# [16] = ATCC11775, inoculum 3.3 × 10^2 germs/ml
# [17] = ATCC11775, inoculum 3.3 × 10^4 germs/ml
# [18] = ATCC11775, inoculum 3.3 × 10^6 germs/ml
compound,measurement,setting,value
"CC1(C)S[C@@H]2[C@H](NC(=O)[C@H](NC(=O)N3CCNC3=O)c3ccccc3)C(=O)N2[C@H]1C(=O)O [Azlocillin, 6-{D-α-[(2-oxo-imidazolidine-1-yl)carbonylamino]-4-phenyl-acetamino}-pencillanic acid sodium salt]",activity against various kinds of E. coli,various kinds of E. coli,only a moderate activity
same,activity against Klebsiella,Klebsiella,only a moderate activity
"CC1(C)S[C@@H]2[C@H](NC(=O)[C@H](NC(=O)Nc3cncnc3O)c3ccc(O)cc3)C(=O)N2[C@H]1C(=O)O [Compound A, D-α-[3-(4-hydroxy-5-pyrimidyl)-ureido]-p-hydroxybenzylpenicillin sodium]",MIC,[1],5 µg/mL
same,MIC,[2],80 µg/mL
same,MIC,[3],0.3 µg/mL
same,MIC,[4],5 µg/mL
same,MIC,[5],2.5 µg/mL
same,MIC,[6],2.5 µg/mL
same,MIC,[7],0.6 µg/mL
same,MIC,[8],80 µg/mL
same,MIC,[9],2.5 µg/mL
same,MIC,[10],> 80 µg/mL
same,MIC,streptococcus aronson,0.08 µg/mL
same,MIC,[11],10 µg/mL
same,concentration at 0.5 h,[12]; oral 100 mg/kg,9100 ng/mL
same,concentration at 1 h,[12]; oral 100 mg/kg,9600 ng/mL
same,concentration at 2 h,[12]; oral 100 mg/kg,2900 ng/mL
same,concentration at 0.5 h,"[12]; sc, subcutaneous 10 mg/kg",9300 ng/mL
same,concentration at 1 h,"[12]; sc, subcutaneous 10 mg/kg",8600 ng/mL
same,concentration at 2 h,"[12]; sc, subcutaneous 10 mg/kg",400 ng/mL
same,ED50,"E. coli ATCC 11775 [13]; ATCC11775, po, peroral",50 mg/kg
same,ED50,"E. coli ATCC 11775 [13]; ATCC11775, sc, subcutaneous",6 mg/kg
same,ED50,[14],50 mg/kg
CC1(C)S[C@@H]2[C@H](NC(=O)[C@H](C(=O)O)c3ccsc3)C(=O)N2[C@H]1C(=O)O [Ticarcillin],antipseudomonal activity,Pseudomonas,only a poor activity
CC1(C)S[C@@H]2[C@H](NC(=O)C(c3ccccc3)S(=O)(=O)O)C(=O)N2[C@H]1C(=O)O (stereo partly drawn) [Sulbenicillin],antipseudomonal activity,Pseudomonas,only a poor activity
"CC1(C)S[C@@H]2[C@H](NC(=O)[C@H](NC(=O)Nc3cnc(C4CC4)nc3O)c3ccc(O)cc3)C(=O)N2[C@H]1C(=O)O [C, D-α-[3-(2-cyclopropyl-4-hydroxy-5-pyrimidyl)-ureido]-p-hdroxybenzyl-penicillin sodium]",MIC,[1],2.5 µg/mL
same,MIC,[2],40 µg/mL
same,MIC,[3],0.3 µg/mL
same,MIC,[4],1.25 µg/mL
same,MIC,[5],1.25 µg/mL
same,MIC,[6],2.5 µg/mL
same,MIC,[7],1.25 µg/mL
same,MIC,[8],80 µg/mL
same,MIC,[9],1.25 µg/mL
same,MIC,[10],80 µg/mL
same,MIC,streptococcus aronson,0.08 µg/mL
same,MIC,[11],10 µg/mL
same,concentration at 0.5 h,[12]; oral 100 mg/kg,3300 ng/mL
same,concentration at 1 h,[12]; oral 100 mg/kg,4800 ng/mL
same,concentration at 2 h,[12]; oral 100 mg/kg,1000 ng/mL
same,concentration at 0.5 h,"[12]; sc, subcutaneous 10 mg/kg",5100 ng/mL
same,concentration at 1 h,"[12]; sc, subcutaneous 10 mg/kg",6800 ng/mL
same,concentration at 2 h,"[12]; sc, subcutaneous 10 mg/kg",400 ng/mL
same,ED50,"E. coli ATCC 11775 [13]; ATCC11775, po, peroral",30 mg/kg
same,ED50,"E. coli ATCC 11775 [13]; ATCC11775, sc, subcutaneous",1.5 mg/kg
same,ED50,[14],7 mg/kg
same,MIC,pseud. aerug. hamburg.; inoculum 4.7 × 10^2 germs/ml,2.5 µg/mL
same,MIC,pseud. aerug. hamburg.; inoculum 4.7 × 10^4 germs/ml,5 µg/mL
same,MIC,pseud. aerug. hamburg.; inoculum 4.7 × 10^6 germs/ml,> 80 µg/mL
same,MIC,E. coli ATCC 11775 [15]; [16],2.5 µg/mL
same,MIC,E. coli ATCC 11775 [15]; [17],2.5 µg/mL
same,MIC,E. coli ATCC 11775 [15]; [18],2.5 µg/mL
"CC1(C)S[C@@H]2[C@H](NC(=O)[C@H](NC(=O)N3CCNC3=O)c3ccccc3)C(=O)N2[C@H]1C(=O)O [Q, reference compound]",MIC,[1],10 µg/mL
same,MIC,[5],5 µg/mL
same,MIC,[6],20 µg/mL
same,MIC,[9],10 µg/mL
same,concentration at 0.5 h,[12]; oral 100 mg/kg,800 ng/mL
same,concentration at 1 h,[12]; oral 100 mg/kg,600 ng/mL
same,concentration at 2 h,[12]; oral 100 mg/kg,300 ng/mL
same,concentration at 0.5 h,"[12]; sc, subcutaneous 10 mg/kg",2800 ng/mL
same,concentration at 1 h,"[12]; sc, subcutaneous 10 mg/kg",3700 ng/mL
same,concentration at 2 h,"[12]; sc, subcutaneous 10 mg/kg",400 ng/mL
same,ED50,"E. coli ATCC 11775 [13]; ATCC11775, po, peroral",320 mg/kg
same,ED50,"E. coli ATCC 11775 [13]; ATCC11775, sc, subcutaneous",35 mg/kg
same,ED50,[14],110 mg/kg
same,MIC,pseud. aerug. hamburg.; inoculum 4.7 × 10^2 germs/ml,5 µg/mL
same,MIC,pseud. aerug. hamburg.; inoculum 4.7 × 10^4 germs/ml,10 µg/mL
same,MIC,pseud. aerug. hamburg.; inoculum 4.7 × 10^6 germs/ml,> 80 µg/mL
same,MIC,E. coli ATCC 11775 [15]; [16],10 µg/mL
same,MIC,E. coli ATCC 11775 [15]; [17],10 µg/mL
same,MIC,E. coli ATCC 11775 [15]; [18],10 µg/mL
CC1(C)S[C@@H]2[C@H](NC(=O)C(C(=O)O)c3ccccc3)C(=O)N2[C@H]1C(=O)O (stereo partly drawn) [Carbenicillin],antipseudomonal activity,Pseudomonas,only a poor activity
